Values joined by “and” are separate entries in the source; they are usually repeats but may differ in a detail not shown here. Identical values can stand only once.
Tested on: NCI-H1341 complex spheroids, percent test/control
Assay: Anticancer human tumor NCI-H1341 cell line growth inhibition [AhR];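 note: spheroids exposed to agents for seven days before readout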
Settings: for viability, T/C: stronger effect = lower value; active = viability on the fitted dose curve at most 10% of control; inactive = the rest
How it was run: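 Agents were dosed in half-log steps down from roughly clinical Cmax, or from 10 microM where Cmax was unknown, alone and with AhR antagonists. Read-out: percent test/control growth of tumor spheroids containing HUVEC and MSC stromal cells.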

[1] = curve of first compound, second compound 0.1 µM
[2] = curve of first compound, second compound 0.316 µM
[3] = curve of first compound, second compound 1 µM
[4] = curve of first compound, second compound 3.16 µM
[5] = curve of first compound, second compound 10 µM
[6] = second compound 0.1 µM, first compound 0.0316 µM
[7] = second compound 0.1 µM, first compound 0.1 µM
[8] = second compound 0.1 µM, first compound 0.316 µM
[9] = second compound 0.1 µM, first compound 1 µM
[10] = second compound 0.1 µM, first compound 3.16 µM
[11] = second compound 0.1 µM, first compound 10 µM
[12] = second compound 0.316 µM, first compound 0.0316 µM
[13] = second compound 0.316 µM, first compound 0.1 µM
[14] = second compound 0.316 µM, first compound 0.316 µM
[15] = second compound 0.316 µM, first compound 1 µM
[16] = second compound 0.316 µM, first compound 3.16 µM
[17] = second compound 0.316 µM, first compound 10 µM
[18] = second compound 1 µM, first compound 0.0316 µM
[19] = second compound 1 µM, first compound 0.1 µM
[20] = second compound 1 µM, first compound 0.316 µM
[21] = second compound 1 µM, first compound 1 µM
[22] = second compound 1 µM, first compound 3.16 µM
[23] = second compound 1 µM, first compound 10 µM
[24] = second compound 3.16 µM, first compound 0.0316 µM
[25] = second compound 3.16 µM, first compound 0.1 µM
[26] = second compound 3.16 µM, first compound 0.316 µM
[27] = second compound 3.16 µM, first compound 1 µM
[28] = second compound 3.16 µM, first compound 3.16 µM
[29] = second compound 3.16 µM, first compound 10 µM
[30] = second compound 10 µM, first compound 0.0316 µM
[31] = second compound 10 µM, first compound 0.1 µM
[32] = second compound 10 µM, first compound 0.316 µM
[33] = second compound 10 µM, first compound 1 µM
[34] = second compound 10 µM, first compound 3.16 µM
[35] = second compound 10 µM, first compound 10 µM
[36] = second compound 0.1 µM, first compound 0.000949 µM
[37] = second compound 0.1 µM, first compound 0.003 µM
[38] = second compound 0.1 µM, first compound 0.00949 µM
[39] = second compound 0.1 µM, first compound 0.03 µM
[40] = second compound 0.1 µM, first compound 0.0949 µM
[41] = second compound 0.1 µM, first compound 0.3 µM
[42] = second compound 0.316 µM, first compound 0.000949 µM
[43] = second compound 0.316 µM, first compound 0.003 µM
[44] = second compound 0.316 µM, first compound 0.00949 µM
[45] = second compound 0.316 µM, first compound 0.03 µM
[46] = second compound 0.316 µM, first compound 0.0949 µM
[47] = second compound 0.316 µM, first compound 0.3 µM
[48] = second compound 1 µM, first compound 0.000949 µM
[49] = second compound 1 µM, first compound 0.003 µM
[50] = second compound 1 µM, first compound 0.00949 µM
[51] = second compound 1 µM, first compound 0.03 µM
[52] = second compound 1 µM, first compound 0.0949 µM
[53] = second compound 1 µM, first compound 0.3 µM
[54] = second compound 3.16 µM, first compound 0.000949 µM
[55] = second compound 3.16 µM, first compound 0.003 µM
[56] = second compound 3.16 µM, first compound 0.00949 µM
[57] = second compound 3.16 µM, first compound 0.03 µM
[58] = second compound 3.16 µM, first compound 0.0949 µM
[59] = second compound 3.16 µM, first compound 0.3 µM
[60] = second compound 10 µM, first compound 0.000949 µM
[61] = second compound 10 µM, first compound 0.003 µM
[62] = second compound 10 µM, first compound 0.00949 µM
[63] = second compound 10 µM, first compound 0.03 µM
[64] = second compound 10 µM, first compound 0.0949 µM
[65] = second compound 10 µM, first compound 0.3 µM

O=C(C=Cc1cccc(S(=O)(=O)Nc2ccccc2)c1)NO + Cc1cncc(-c2nc(NCCc3c[nH]c4ccccc34)c3ncn(C(C)C)c3n2)c1
inactive: viability, T/C [6] 71.7% | viability, T/C [7] 80.8% | viability, T/C [8] 43.8% | viability, T/C [9] 16% | viability, T/C [12] 76.2% | viability, T/C [13] 74.7% | viability, T/C [14] 55.1% | viability, T/C [15] 15.3% | viability, T/C [18] 80.3% | viability, T/C [19] 55.7% | viability, T/C [20] 44.9% | viability, T/C [21] 22.9% | viability, T/C [24] 71.2% | viability, T/C [25] 55.6% | viability, T/C [26] 38.1% | viability, T/C [27] 13.1% | viability, T/C [30] 37% | viability, T/C [31] 33.9% | viability, T/C [32] 20.2% | viability, T/C [33] 9.91%
150 nM: IC50 [4]
278 nM: IC50 [1]
366 nM: IC50 [2]
active: viability, T/C [10] 5.29% | viability, T/C [11] 0.53% | viability, T/C [16] 5.78% | viability, T/C [17] 0.65% | viability, T/C [22] 5.39% | viability, T/C [23] 0.5% | viability, T/C [28] 4.08% | viability, T/C [29] 0.56% | viability, T/C [34] 2.99% | viability, T/C [35] 0.32%
179 nM: IC50 [3]
< 31.6 nM: IC50 [5]

Nc1ncn(C2CC(O)C(CO)S2)c(=O)n1 (configuration not stated)
> 300 nM and 294 nM: IC50 (curve of compound)
inactive: viability, T/C (compound 0.000949 µM) 109% and 96.2% and 95% | viability, T/C (compound 0.003 µM) 90.5% and 73.4% and 100% | viability, T/C (compound 0.00949 µM) 115% and 102% and 104% | viability, T/C (compound 0.03 µM) 105% and 80.6% and 104% | viability, T/C (compound 0.0949 µM) 89.2% and 68.3% and 79% | viability, T/C (compound 0.3 µM) 68.2% and 49.5% and 62%

CC1COCCN1c1cc(C2(S(C)(=N)=O)CC2)nc(-c2ccnc3[nH]ccc23)n1 (configuration not stated) + Cc1cncc(-c2nc(NCCc3c[nH]c4ccccc34)c3ncn(C(C)C)c3n2)c1
< 31.6 nM: IC50 [5]
3450 nM: IC50 [3]
3650 nM: IC50 [1]
1820 nM: IC50 [4]
inactive: viability, T/C [6] 81.4% | viability, T/C [7] 85.2% | viability, T/C [8] 71.1% | viability, T/C [9] 71.5% | viability, T/C [10] 54.6% | viability, T/C [11] 21.9% | viability, T/C [12] 87.9% | viability, T/C [13] 84.1% | viability, T/C [14] 75.1% | viability, T/C [15] 62.1% | viability, T/C [16] 41.6% | viability, T/C [17] 20.6% | viability, T/C [18] 89.9% | viability, T/C [19] 83.6% | viability, T/C [20] 70.3% | viability, T/C [21] 75.1% | viability, T/C [22] 51.7% | viability, T/C [23] 22.8% | viability, T/C [24] 54.7% | viability, T/C [25] 66.3% | viability, T/C [26] 65.6% | viability, T/C [27] 62.9% | viability, T/C [28] 38.5% | viability, T/C [29] 25.6% | viability, T/C [30] 40.5% | viability, T/C [31] 30.7% | viability, T/C [32] 39.2% | viability, T/C [33] 29.1% | viability, T/C [34] 26.3% | viability, T/C [35] 13.9%
1970 nM: IC50 [2]

NS(=O)(=O)OCC1CC(n2ccc3c(NC4CCc5ccccc54)ncnc32)CC1O (configuration not stated)
11.9% and 7.68% and 3.37%: viability, T/C (compound 3.16 µM)
inactive: viability, T/C (compound 0.0316 µM) 52.1% and 44.4% and 32.1% | viability, T/C (compound 0.1 µM) 41.7% and 37.3% and 22.6% | viability, T/C (compound 0.316 µM) 27.1% and 18% and 11.2%
11.4% and 4.21% and 2.28%: viability, T/C (compound 10 µM)
39.2 nM and < 31.6 nM: IC50 (curve of compound)
12.3% and 12.1% and 6.23%: viability, T/C (compound 1 µM)

CC(C)CC(NC(=O)C(Cc1ccccc1)NC(=O)c1cnccn1)B(O)O (configuration not stated) + CC(CO)NC(=O)c1cc(-c2ccc(Cl)cc2)nn(-c2cnn(C)c2)c1=O
active: viability, T/C [38] 0.86% | viability, T/C [39] 0.08% | viability, T/C [40] 0.36% | viability, T/C [41] 0.13% | viability, T/C [44] 0.3% | viability, T/C [45] 0.06% | viability, T/C [46] 0.04% | viability, T/C [47] 0.68% | viability, T/C [50] 0.31% | viability, T/C [51] 0.09% | viability, T/C [52] 1.13% | viability, T/C [53] 0.28% | viability, T/C [56] 0.91% | viability, T/C [57] 0.08% | viability, T/C [58] 0.98% | viability, T/C [59] 0.6% | viability, T/C [62] 1.02% | viability, T/C [63] 0.15% | viability, T/C [64] 0.12% | viability, T/C [65] 0.45%
4.31 nM: IC50 [3]
4.3 nM: IC50 [2]
4.61 nM: IC50 [1]
3.81 nM: IC50 [5]
3.55 nM: IC50 [4]
inactive: viability, T/C [36] 89.8% | viability, T/C [37] 79.2% | viability, T/C [42] 88.1% | viability, T/C [43] 72.6% | viability, T/C [48] 70.3% | viability, T/C [49] 75% | viability, T/C [54] 86.3% | viability, T/C [55] 58.4% | viability, T/C [60] 83.4% | viability, T/C [61] 62.9%

CC(CO)NC(=O)c1cc(-c2ccc(Cl)cc2)nn(-c2cnn(C)c2)c1=O (configuration not stated)
> 10000 nM: IC50 (compound alone, run of 07/12/2022)
inactive: viability, T/C (compound 10 µM) 78.7% [middle of 19 runs]

Nc1ncn(C2CC(O)C(CO)S2)c(=O)n1 (configuration not stated) + Cc1cncc(-c2nc(NCCc3c[nH]c4ccccc34)c3ncn(C(C)C)c3n2)c1
< 0.949 nM: IC50 [5]
282 nM: IC50 [2]
> 300 nM: IC50 [1] | IC50 [3] | IC50 [4]
inactive: viability, T/C [36] 102% | viability, T/C [37] 82.9% | viability, T/C [38] 91.5% | viability, T/C [39] 88.3% | viability, T/C [40] 67.7% | viability, T/C [41] 50.2% | viability, T/C [42] 84.9% | viability, T/C [43] 89.5% | viability, T/C [44] 79.6% | viability, T/C [45] 73.8% | viability, T/C [46] 71.8% | viability, T/C [47] 47.8% | viability, T/C [48] 69.8% | viability, T/C [49] 87.3% | viability, T/C [50] 80.7% | viability, T/C [51] 77.2% | viability, T/C [52] 67.5% | viability, T/C [53] 58% | viability, T/C [54] 93.7% | viability, T/C [55] 97.9% | viability, T/C [56] 86.9% | viability, T/C [57] 84.7% | viability, T/C [58] 82.3% | viability, T/C [59] 63.8% | viability, T/C [60] 45% | viability, T/C [61] 44.2% | viability, T/C [62] 42.1% | viability, T/C [63] 35.8% | viability, T/C [64] 33.1% | viability, T/C [65] 26%

NS(=O)(=O)OCC1CC(n2ccc3c(NC4CCc5ccccc54)ncnc32)CC1O (configuration not stated) + CC(CO)NC(=O)c1cc(-c2ccc(Cl)cc2)nn(-c2cnn(C)c2)c1=O
< 31.6 nM: IC50 [1] | IC50 [2] | IC50 [3] | IC50 [4] | IC50 [5]
inactive: viability, T/C [6] 33% | viability, T/C [7] 28% | viability, T/C [8] 11% | viability, T/C [12] 37.6% | viability, T/C [13] 28.2% | viability, T/C [14] 13.5% | viability, T/C [18] 39.7% | viability, T/C [19] 31.2% | viability, T/C [20] 13.1% | viability, T/C [24] 32.1% | viability, T/C [25] 27.6% | viability, T/C [26] 14.8% | viability, T/C [30] 29.1% | viability, T/C [31] 23.1% | viability, T/C [32] 13.8%
active: viability, T/C [9] 5.48% | viability, T/C [10] 5.17% | viability, T/C [11] 3.34% | viability, T/C [15] 6.9% | viability, T/C [16] 3.38% | viability, T/C [17] 3.76% | viability, T/C [21] 6.82% | viability, T/C [22] 4.46% | viability, T/C [23] 3.84% | viability, T/C [27] 7.34% | viability, T/C [28] 5.49% | viability, T/C [29] 4.2% | viability, T/C [33] 7.32% | viability, T/C [34] 5.1% | viability, T/C [35] 2.95%

Cc1ccccc1N=Nc1ccc(NC(=O)c2ccnn2C)c(C)c1
inactive: viability, T/C (compound 10 µM) 56.2% [middle of 20 runs]

Reference: PubChem BioAssay AID1919014 (Molecular Pharmacology Branch, DTP, NCI, 2023)
